Results on 3 compounds are retold here after patent US12398138B2, “FGFR inhibitor compound in solid form and preparation method therefor” (CSPC ZHONGQI PHARMACEUTICAL TECHNOLOGY (SHIJIAZHUANG) CO., …, priority 2019, dated 2025).

What is called IC50 is the midpoint of a concentration-inhibition curve. Read a low IC50 as inhibition by little substance. The term clearance denotes the volume of plasma or blood freed of the substance per unit of time. A lower clearance goes with inefficient removal. In general, bioavailability refers to the share of a dose that reaches the circulation, judged against a reference dose that is usually intravenous.

Data set [1] can be described thus: Hygroscopicity by dynamic vapor sorption (DVS). Type of data set: physicochemical. Conditions: 25° C. and 80% RH. On the procedure:
Dynamic Vapor Sorption (DVS)
Test condition: Approximately 10-15 mg of sample was used for DVS detection.
Equilibrating dm/dt: 0.01%/min: (time: 10 min-180 min (maximum))
RH (%) measuring gradient: 10%
Range of RH (%) measuring gradient: 0%-90%-0%
The evaluation criteria was as follows:
SMS DVS Advantage dynamic vapor adsorption instrument
10-15 mg of the crystal form B of the compound of Formula (I) was taken and placed on a DVS sample pan for test.

The target in another data set is T1, human FGFR4 (Homo sapiens, UniProt P22455).
T1 construct: purchased Invitrogen P3054
T1 sequence (P22455 22-802): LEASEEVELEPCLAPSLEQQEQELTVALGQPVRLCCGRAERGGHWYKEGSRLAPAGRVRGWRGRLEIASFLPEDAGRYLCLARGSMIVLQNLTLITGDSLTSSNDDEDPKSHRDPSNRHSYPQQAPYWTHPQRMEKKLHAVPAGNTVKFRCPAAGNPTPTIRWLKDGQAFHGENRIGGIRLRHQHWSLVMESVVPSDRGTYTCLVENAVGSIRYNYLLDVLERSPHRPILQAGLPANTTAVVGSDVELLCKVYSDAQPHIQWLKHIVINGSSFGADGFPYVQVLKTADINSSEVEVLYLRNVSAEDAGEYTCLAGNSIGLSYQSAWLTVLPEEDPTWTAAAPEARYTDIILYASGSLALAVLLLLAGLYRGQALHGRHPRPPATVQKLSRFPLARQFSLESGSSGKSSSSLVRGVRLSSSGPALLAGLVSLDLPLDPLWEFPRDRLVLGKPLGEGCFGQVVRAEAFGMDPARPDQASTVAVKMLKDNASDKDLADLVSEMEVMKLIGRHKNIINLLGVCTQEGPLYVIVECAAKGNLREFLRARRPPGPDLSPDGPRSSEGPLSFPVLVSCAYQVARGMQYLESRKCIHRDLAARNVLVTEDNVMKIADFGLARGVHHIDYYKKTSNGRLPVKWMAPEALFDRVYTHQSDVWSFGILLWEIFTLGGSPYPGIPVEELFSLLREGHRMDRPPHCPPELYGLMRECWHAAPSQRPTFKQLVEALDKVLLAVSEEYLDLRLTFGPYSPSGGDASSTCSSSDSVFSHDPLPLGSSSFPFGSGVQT
Kind of data set: 33P isotope-labeled kinase activity assay, wild type FGFR4. Type of data set: biochemical. The note with it: ATP 100 μM. On the procedure:
(§1) IC50 was determined by using ^33P isotope-labeled kinase activity assay (Reaction Biology Corp), to evaluate the inhibitory ability of the test compound against human FGFR1 and FGFR4.
(§2) Buffer conditions: 20 mM Hepes (pH 7.5), 10 mM MgCl2, 1 mM EGTA, 0.02% Brij35, 0.02 mg/mL BSA, 0.1 mM Na3VO4, 2 mM DTT, and 1% DMSO.
(§3) Test procedures: At room temperature, the compound of Formula (I) was dissolved in DMSO to prepare a 10 mM solution. The substrate was dissolved in a freshly prepared buffer, and added with the test kinase and well mixed. By using acoustic technology (Echo 550), the solution of the test compound in DMSO was added into the above well-mixed reaction solution, to allow a compound concentration in reaction solution to be 10 μM, 3.33 μM, 1.11 μM, 0.370 μM, 0.123 μM, 41.2 nM, 13.7 nM, 4.57 nM, 1.52 nM, and 0.508 nM, or to be 10 μM, 2.50 μM, 0.62 μM, 0.156 μM, 39.1 nM, 9.8 nM, 2.4 nM, 0.61 nM, 0.15 nM, and 0.038 nM. After 15 minutes of incubation, ^33P-ATP (having an activity of 0.01 μCi/μl, and corresponding concentrations were given in Table 3) was added to start the reaction. Information about FGFR1, FGFR4 and their substrate's supplier, catalog number and lot number, as well as their concentration in the reaction solution, was listed in Table 3. […]

A further data set concerns the target T2, FGFR4 (N535K) (Homo sapiens, UniProt P22455, N535K).
T2 construct: purchased Carna Biosciences Carna 08-524
The experiment in a line: 33P isotope-labeled kinase activity assay, mutant FGFR4 (N535K). Type of data set: biochemical. Conditions: ATP 2.5 μM. On the procedure: (§4) IC50 was determined by using ^33P isotope-labeled kinase activity assay (Reaction Biology Corp), to evaluate the inhibitory ability of the test compound against mutant FGFR.
(§5) Test procedures: At room temperature, test compound was dissolved in DMSO to prepare a 10 mM solution. The substrate was dissolved in a freshly prepared buffer, to which the test kinase was added and well mixed. By using acoustic technology (Echo 550), the solution of the test compound in DMSO was added into the well-mixed reaction solution, to allow a compound concentration in reaction solution to be 10 μM, 3.33 μM, 1.11 μM, 0.370 μM, 0.123 μM, 41.2 nM, 13.7 nM, 4.57 nM, 1.52 nM, 0.508 nM, or to be 10 μM, 2.50 μM, 0.62 μM, 0.156 μM, 39.1 nM, 9.8 nM, 2.4 nM, 0.61 nM, 0.15 nM, 0.038 nM. After 15 minutes of incubation, ^33P-ATP (having an activity of 0.01 μCi/μl, and corresponding concentrations were given in Table 5) was added to start the reaction. […] After washing the filter paper with a 0.75% phosphoric acid solution repeatedly, the radioactivity of the phosphorylated substrate left on the filter paper was measured. The kinase activity data was expressed by comparing the kinase activity of the test compound with that of blank group (containing DMSO only), and IC50 was determined by curve fitting with Prism4 software (GraphPad).

For another data set, the target named is T3, FGFR1 (V561M) (Homo sapiens, UniProt P11362, V561M).
T3 construct: purchased Signal Chem F04-13G
T3 sequence (P11362 22-822 V561M): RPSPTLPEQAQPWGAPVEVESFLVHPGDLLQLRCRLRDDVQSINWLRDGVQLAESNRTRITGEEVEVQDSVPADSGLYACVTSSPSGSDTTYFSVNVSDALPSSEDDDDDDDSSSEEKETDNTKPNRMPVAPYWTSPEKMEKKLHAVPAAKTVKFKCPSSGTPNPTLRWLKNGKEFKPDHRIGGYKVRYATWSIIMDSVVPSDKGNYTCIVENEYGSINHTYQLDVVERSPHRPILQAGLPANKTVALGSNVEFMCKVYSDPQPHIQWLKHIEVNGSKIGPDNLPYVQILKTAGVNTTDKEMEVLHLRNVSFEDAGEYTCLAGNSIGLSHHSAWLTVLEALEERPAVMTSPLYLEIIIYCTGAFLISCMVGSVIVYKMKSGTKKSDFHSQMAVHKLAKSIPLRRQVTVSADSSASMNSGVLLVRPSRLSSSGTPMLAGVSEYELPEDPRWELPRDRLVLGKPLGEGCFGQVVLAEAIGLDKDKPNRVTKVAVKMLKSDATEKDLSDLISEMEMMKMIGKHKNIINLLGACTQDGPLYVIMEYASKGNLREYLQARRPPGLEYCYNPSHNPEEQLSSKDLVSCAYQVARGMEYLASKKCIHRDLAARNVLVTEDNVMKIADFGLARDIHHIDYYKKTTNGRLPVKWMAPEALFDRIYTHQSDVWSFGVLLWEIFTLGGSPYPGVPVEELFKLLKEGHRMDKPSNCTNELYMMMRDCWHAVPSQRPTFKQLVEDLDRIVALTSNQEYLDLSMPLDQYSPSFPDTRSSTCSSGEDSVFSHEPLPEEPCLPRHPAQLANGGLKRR
Kind of data set: 33P isotope-labeled kinase activity assay, mutant FGFR1 (V561M). Type of data set: biochemical. Conditions: ATP 10 μM. On the procedure:
as §4, §5

A further data set addresses T4, FGFR4 (V550M) (Homo sapiens, UniProt P22455, V550M).
T4 construct: purchased Signal Chem F07-12DG
Kind of data set: 33P isotope-labeled kinase activity assay, mutant FGFR4 (V550M). The note with it: ATP 2.5 μM. It counts as biochemical. On the procedure: as §4, §5

A short description of data set [2]: Pharmacokinetic investigation in dogs. It counts as in vivo. The note with it: male, dog, plasma, beagle dogs; for AUC: read-out: Concentration integral AUC; for half-life: read-out: Half-life T1/2 (converted); for bioavailability: read-out: Bioavailability F. The source says:
The experiments aimed to test the pharmacokinetics of the test compound in beagle dogs.
Two beagle dogs were selected as one group. The compound was formulated into a designated preparation. The vehicle for intravenous injection was a mixture of DMSO: polyethylene glycol […] (PEG400): saline=10:40:50 (volume ratio) or a mixture of 10% DMSO/10% solutol/80% water. The vehicle for oral administration was a mixture of 0.5% methylcellulose (MC)+0.2% Tween. Each animal was given the preparation intragastrically at a predetermined dosage.
Whole blood samples, each about 500 μL, were collected from the cephalic vein or saphenous vein at […], namely 5 minutes, 15 minutes, 30 minutes, 1 hour, 2 hours, 4 hours, 6 hours, 8 hours, 12 hours and 24 hours after the animals were administered.
The […] was put into a centrifuge tube containing anticoagulant, and centrifuged at 3000 g for 10 min at 4° C. The plasma supernatant was frozen quickly on dry ice, and then kept in a frige at −70±10° C. until LC-MS/MS analysis was performed.
The plasma concentration of the compound was processed using a non-compartmental model by WinNonlin™ Version 6.3.0 (Pharsight, Mountain View, Calif.) pharmacokinetic software. The peak concentration (Cmax), time of maximum plasma concentration (Tmax), and time of the last quantifiable concentration, were determined directly from the curve of plasma concentration−time.
The following pharmacokinetic parameters: half-life time of elimination phase (T½), the mean residence time of the drug in the body from time 0 to the end timepoint (MRT0-last), the mean residence time of the drug in the body from time 0 to infinite time (MRT0-inf), area under the plasma concentration-time curve from time 0 to the end timepoint (AUC0-last), area under plasma concentration-time curve from time 0 to infinite time (AUC0-inf), were calculated using the log-linear trapezoidal method.
For the individual plasma concentration below the detection line, when it appeared before Tmax, it was calculated as 0; when it appeared after Tmax, it was directly excluded. All parameters and ratios were reported in the form of three significant figures.
In these experiments, the pharmacokinetic parameters were calculated based on the theoretical blood collection time and theoretical administration concentration in the embodiments.

The next data set deals with T5, FGFR3 (K650M) (Homo sapiens, UniProt P22607, K650M).
T5 construct: purchased Carna Biosciences Carna 08-199
T5 sequence (P22607 23-806 K650M): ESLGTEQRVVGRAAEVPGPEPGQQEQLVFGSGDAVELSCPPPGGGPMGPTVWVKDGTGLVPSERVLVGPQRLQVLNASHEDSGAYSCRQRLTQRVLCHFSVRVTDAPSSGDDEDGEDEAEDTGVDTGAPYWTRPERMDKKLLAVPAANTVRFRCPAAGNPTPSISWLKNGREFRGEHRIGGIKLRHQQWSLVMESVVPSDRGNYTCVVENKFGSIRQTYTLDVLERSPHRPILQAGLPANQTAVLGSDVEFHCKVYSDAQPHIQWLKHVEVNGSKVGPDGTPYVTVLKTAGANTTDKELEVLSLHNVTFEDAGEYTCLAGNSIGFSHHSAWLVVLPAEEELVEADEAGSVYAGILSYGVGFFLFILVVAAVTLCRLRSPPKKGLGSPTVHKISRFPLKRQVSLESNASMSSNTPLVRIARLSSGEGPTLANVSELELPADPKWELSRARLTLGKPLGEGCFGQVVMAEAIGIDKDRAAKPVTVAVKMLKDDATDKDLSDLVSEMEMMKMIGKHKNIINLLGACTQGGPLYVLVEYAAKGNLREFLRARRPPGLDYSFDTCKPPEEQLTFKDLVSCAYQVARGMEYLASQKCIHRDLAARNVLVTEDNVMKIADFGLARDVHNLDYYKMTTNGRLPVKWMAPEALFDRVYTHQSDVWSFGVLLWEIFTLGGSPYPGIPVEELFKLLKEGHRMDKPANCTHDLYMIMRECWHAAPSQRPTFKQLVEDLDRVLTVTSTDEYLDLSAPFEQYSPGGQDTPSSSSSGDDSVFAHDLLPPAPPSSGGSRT
Kind of data set: 33P isotope-labeled kinase activity assay, mutant FGFR3 (K650M). Type of data set: biochemical. The note with it: ATP 2.5 μM. The method, then: as §4, §5

In another data set the target is T6, FGFR3 (V555M) (Homo sapiens, UniProt P22607, V555M).
T6 construct: purchased SignalChem F06-12GG
T6 sequence (P22607 23-806 V555M): as the sequence (P22607 23-806 K650M) above, with V533M, M628K counted along it
The experiment in a line: 33P isotope-labeled kinase activity assay, mutant FGFR3 (V555M). It counts as biochemical. The note with it: ATP 20 μM. On the procedure:
as §4, §5

For a further data set, the target named is T7, FGFR2 (N549H) (Homo sapiens, UniProt P21802, N549H).
T7 construct: purchased Millipore 14-742
T7 sequence (P21802 22-821 N549H): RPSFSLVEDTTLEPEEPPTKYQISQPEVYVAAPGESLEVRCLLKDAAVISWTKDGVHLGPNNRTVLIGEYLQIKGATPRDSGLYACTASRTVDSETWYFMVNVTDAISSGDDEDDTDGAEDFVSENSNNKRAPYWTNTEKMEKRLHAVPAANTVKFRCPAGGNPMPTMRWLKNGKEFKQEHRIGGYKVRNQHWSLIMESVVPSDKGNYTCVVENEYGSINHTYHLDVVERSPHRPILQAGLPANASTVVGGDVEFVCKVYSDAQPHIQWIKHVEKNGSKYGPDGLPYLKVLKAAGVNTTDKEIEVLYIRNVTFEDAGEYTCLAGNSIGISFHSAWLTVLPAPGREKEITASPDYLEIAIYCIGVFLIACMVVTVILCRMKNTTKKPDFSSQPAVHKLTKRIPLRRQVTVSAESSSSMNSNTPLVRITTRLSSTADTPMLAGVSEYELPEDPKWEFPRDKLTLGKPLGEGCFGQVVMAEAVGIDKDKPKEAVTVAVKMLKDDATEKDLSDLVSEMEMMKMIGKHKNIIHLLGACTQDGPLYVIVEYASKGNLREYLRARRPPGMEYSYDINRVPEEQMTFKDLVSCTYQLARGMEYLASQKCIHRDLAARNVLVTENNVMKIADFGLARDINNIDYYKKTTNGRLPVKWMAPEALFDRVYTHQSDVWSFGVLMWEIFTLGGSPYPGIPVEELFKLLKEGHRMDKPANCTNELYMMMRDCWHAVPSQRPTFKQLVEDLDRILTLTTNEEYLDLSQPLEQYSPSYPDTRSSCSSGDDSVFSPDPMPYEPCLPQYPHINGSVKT
Kind of data set: 33P isotope-labeled kinase activity assay, mutant FGFR2 (N549H). Type of data set: biochemical. The note with it: ATP 50 μM. On the procedure: as §4, §5

The target in the next data set is T8, FGFR2 (V564F) (Homo sapiens, UniProt P21802, V564F).
T8 construct: purchased SignalChem F05-12FG
T8 sequence (P21802 22-821 V564F): as the sequence (P21802 22-821 N549H) above, with H528N, V543F counted along it
The experiment in a line: 33P isotope-labeled kinase activity assay, mutant FGFR2 (V564F). It counts as biochemical. Conditions: ATP 20 μM. On the procedure: as §4, §5

The next data set concerns the target T9, FGFR2 (E565G) (Homo sapiens, UniProt P21802, E565G).
T9 construct: purchased Signal Chem F05-12CG
The experiment in a line: 33P isotope-labeled kinase activity assay, mutant FGFR2 (E565G). Type of data set: biochemical. Conditions: ATP 10 μM. On the procedure: as §4, §5

Another data set has as its target T10, human FGFR1 (Homo sapiens, UniProt P11362).
T10 construct: purchased Invitrogen PV3146
The experiment in a line: 33P isotope-labeled kinase activity assay, wild type FGFR1. Type of data set: biochemical. Conditions: ATP 5 μM. On the procedure:
as §1, §2, §3

[3] abbreviates: 1 mg/kg, intravenous administration (1 mpk).
Where [4] appears, read: 5 mg/kg, oral administration (5 mpk).

Like-named read-outs stand apart in the source and are kept apart here.

T9 sequence (P21802 22-821 E565G): as the sequence (P21802 22-821 N549H) above, with H528N, E544G counted along it
T2 sequence (P22455 22-802 N535K): as the sequence (P22455 22-802) above, with N514K counted along it
T4 sequence (P22455 22-802 V550M): as the sequence (P22455 22-802) above, with V529M counted along it
T10 sequence (P11362 22-822): as the sequence (P11362 22-822 V561M) above, with M540V counted along it

For the compound `C=CC(=O)N1CC[C@H](c2cc(-c3cc4cc(C)cc(OC)c4s3)c3c(N)ncnn23)C1`, in [1], the hygroscopicity classification entry was “no or almost no hygroscopicity (weight gain caused by moisture is less than 0.2%.)” and the “weight gain caused by moisture-adsorption ΔW” value turned out to be 0.1928%.

With `C=CC(=O)N1CC[C@H](c2cc(-c3cc4cc(C)cc(OC)c4s3)c3c(N)ncnn23)C1` [compound represented by Formula (I)], the half-maximal inhibitory concentration (IC50) at human FGFR4 was determined as 0.2 nM; on FGFR4 (N535K), 34 nM; against FGFR1 (V561M), 38 nM; against FGFR4 (V550M), 5.6 nM; on FGFR3 (K650M), 0.2 nM; against FGFR3 (V555M) it was 7.3 nM. For the same compound, the IC50 was 0.5 nM against FGFR2 (N549H), 33 nM on FGFR2 (V564F), 0.1 nM against FGFR2 (E565G) and 0.2 nM against human FGFR1. For the same compound, in data set [2] (setting [3]), the clearance stood at 9.4 mL/min/kg. Besides, the AUC in data set [2] (setting [3]) was determined as 4.13 µM·h; in data set [2] (setting [4]), 18.2 µM·h. For the same compound, the half-life in data set [2] (setting [3]) is 180 min. In addition, the bioavailability in data set [2] (setting [4]) was 88%.

For `C=CC(=O)N1CC[C@H](n2nc(C#Cc3cc(OC)cc(OC)c3)c3c(N)ncnc32)C1` [reference compound 1, reference compound], in data set [2] (setting [3]), the clearance stood at 17 mL/min/kg and the half-life was 48 min. The bioavailability in data set [2] (setting [4]) came out at 41%.
